Measurements from ChEMBL document CHEMBL1201862, “PubChem BioAssay data set” (2004).
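Test compounds were applied to cells in 96-well plates for 48 hours at 5 doses. Here, GI50 denotes the concentration required for 50% inhibition of growth.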 Activity calls are given as the source filed them. Cut-off read from the data, not from the text of the source: active = GI50 up to about 1.1 µM and inactive = higher. Where a SMILES comes first, the peptide text is derived from it. [ ]: non-standard residue; d: D form. The star is where a group is joined. ξ: configuration not given here. ξD = NC(CC(=O)O)C(=O)O; Boc = CC(C)(C)OC(=O)*; Aib = CC(C)(N)C(=O)O; OBn = c1ccc(CO*)cc1

Experiments:
Experiment in all cases: DTP human tumour cell line panel, 48 h
[1] = test system: RPMI-8226
[2] = test system: MOLT-4
[3] = test system: ACHN
[4] = test system: NCI-H23
[5] = test system: RXF 393
[6] = test system: SK-MEL-5
[7] = test system: SR
[8] = test system: BT-549
[9] = test system: PC-3
[10] = test system: CAKI-1
[11] = test system: MDA-N
[12] = test system: HL-60
[13] = test system: MCF7
[14] = test system: UACC-62
[15] = test system: NCI-H460
[16] = test system: UO-31
[17] = test system: SF-268
[18] = test system: HT-29
[19] = test system: HCT-15
[20] = test system: HCC 2998

Structure (SMILES)	GI50 [1]	GI50 [2]	GI50 [3]	GI50 [4]	GI50 [5]	GI50 [6]	GI50 [7]	GI50 [8]	GI50 [9]	GI50 [10]	GI50 [11]	GI50 [12]	GI50 [13]	GI50 [14]	GI50 [15]	GI50 [16]	GI50 [17]	GI50 [18]	GI50 [19] [µM]	GI50 [20]
Cc1nnc(S(=O)(=O)c2ccc(/N=N/c3c(N)nc(N)nc3N)cc2)s1	> 100 µM (inactive)	> 100 µM (inactive)	> 100 µM (inactive)	> 100 µM (inactive)	> 100 µM (inactive)	> 100 µM (inactive)	> 100 µM (inactive)	> 100 µM (inactive)	> 100 µM (inactive)	> 100 µM (inactive)	> 100 µM (inactive)	33.4 µM (inactive)	> 100 µM (inactive)	> 100 µM (inactive)	> 100 µM (inactive)	> 100 µM (inactive)	> 100 µM (inactive)	> 100 µM (inactive)	> 100	
O=S1(=O)OCCOS(=O)(=O)C1Cc1nc2ccccc2[nH]1	34.3 µM (inactive)	24.2 µM (inactive)	32.1 µM (inactive)	41 µM (inactive)		34.7 µM (inactive)	28.6 µM (inactive)	> 10 µM (inactive)	19.6 µM (inactive)	27 µM (inactive)	22.3 µM (inactive)	22.5 µM (inactive)	33.7 µM (inactive)		28.2 µM (inactive)	75.7 µM (inactive)		51.2 µM (inactive)	26	54.7 µM (inactive)
CCOC(=O)c1cnn2c1ncc1c(=O)n(NC(N)=O)ccc12		> 100 µM (inactive)	> 100 µM (inactive)	> 100 µM (inactive)		> 100 µM (inactive)		94.8 µM (inactive)	> 100 µM (inactive)	> 100 µM (inactive)	> 100 µM (inactive)	> 100 µM (inactive)	> 100 µM (inactive)	> 100 µM (inactive)	> 100 µM (inactive)	> 100 µM (inactive)	> 100 µM (inactive)	> 100 µM (inactive)	> 100	
O=C(O)/C(=C\c1ccccc1)Cc1ccccc1	> 100 µM (inactive)	> 100 µM (inactive)	> 100 µM (inactive)	> 100 µM (inactive)	> 100 µM (inactive)	> 100 µM (inactive)		> 100 µM (inactive)	> 100 µM (inactive)	> 100 µM (inactive)	> 100 µM (inactive)	> 100 µM (inactive)	> 100 µM (inactive)	> 100 µM (inactive)	> 100 µM (inactive)	> 100 µM (inactive)	> 100 µM (inactive)	> 100 µM (inactive)	> 100	> 100 µM (inactive)
O=C1Nc2ccccc2C(=O)/C1=C/NC(=S)NCc1ccccc1		> 100 µM (inactive)	> 100 µM (inactive)	> 100 µM (inactive)		> 100 µM (inactive)		> 100 µM (inactive)	> 100 µM (inactive)	> 100 µM (inactive)	> 100 µM (inactive)	> 100 µM (inactive)	> 100 µM (inactive)	> 100 µM (inactive)		> 100 µM (inactive)		> 100 µM (inactive)		
Cc1ccc(C(=O)/C=C(O)/C(O)=C/C(=O)c2ccc(C)cc2C)c(C)c1	2.01 µM (inactive)	1.98 µM (inactive)	1.84 µM (inactive)	1.65 µM (inactive)	2.02 µM (inactive)	1.75 µM (inactive)	2.33 µM (inactive)	1.64 µM (inactive)	2.31 µM (inactive)	2.07 µM (inactive)		0.0641 µM (active)	2.02 µM (inactive)	1.79 µM (inactive)	1.71 µM (inactive)	1.36 µM (inactive)	1.91 µM (inactive)	2.48 µM (inactive)	2	1.92 µM (inactive)
CC(C)(C)OC(=O)NC(CC(=O)OCc1ccccc1)C(=O)NC(C)(C)C(N)=O (stereo not drawn) (Boc-[ξD](OBn)-[Aib]-NH2)	> 100 µM (inactive)	> 100 µM (inactive)	> 100 µM (inactive)	> 100 µM (inactive)	> 100 µM (inactive)	> 100 µM (inactive)		> 100 µM (inactive)	> 100 µM (inactive)	> 100 µM (inactive)	> 100 µM (inactive)		> 100 µM (inactive)	0.0204 µM (active)	> 100 µM (inactive)	> 100 µM (inactive)	> 100 µM (inactive)	> 100 µM (inactive)	> 100	
CC1(C)CC(=O)C(=CNc2nc(-c3cccc([N+](=O)[O-])c3)cs2)C(=O)C1	17.9 µM (inactive)	10.5 µM (inactive)	18.2 µM (inactive)	18.1 µM (inactive)	21.7 µM (inactive)			18.7 µM (inactive)	24.8 µM (inactive)	11.3 µM (inactive)	17.8 µM (inactive)	7.52 µM (inactive)	15.8 µM (inactive)	16 µM (inactive)	14.7 µM (inactive)	25.6 µM (inactive)	15 µM (inactive)	17 µM (inactive)	11.6	15.7 µM (inactive)
c1ccc(N/N=N/c2ccc(-c3nc4ccccc4o3)cc2)nc1		21.6 µM (inactive)	52.2 µM (inactive)	34 µM (inactive)		16.2 µM (inactive)	38.5 µM (inactive)	28.8 µM (inactive)	30.1 µM (inactive)		68.7 µM (inactive)	13.7 µM (inactive)	35.6 µM (inactive)	40.8 µM (inactive)	30.5 µM (inactive)	26.6 µM (inactive)	83.6 µM (inactive)	42.8 µM (inactive)	33.7	20 µM (inactive)
O=C(CCc1ccccc1)On1c(-c2ccccc2)nc2ccccc2c1=S	7.28 µM (inactive)	0.455 µM (active)	5.69 µM (inactive)	4.3 µM (inactive)	18.6 µM (inactive)	4.47 µM (inactive)		14.5 µM (inactive)	4.73 µM (inactive)	5.68 µM (inactive)	12.9 µM (inactive)	3.05 µM (inactive)	4.54 µM (inactive)	3.94 µM (inactive)	1.35 µM (inactive)	3.66 µM (inactive)	3.07 µM (inactive)	3.85 µM (inactive)	2.32	4.52 µM (inactive)
COc1ccc(-n2cnc3c(NC(C)(C)C(=O)O)ncnc32)cc1	> 100 µM (inactive)	> 100 µM (inactive)	> 100 µM (inactive)	> 100 µM (inactive)		> 100 µM (inactive)	> 100 µM (inactive)	> 100 µM (inactive)	> 100 µM (inactive)	> 100 µM (inactive)	> 100 µM (inactive)		> 100 µM (inactive)	> 100 µM (inactive)	> 100 µM (inactive)	> 100 µM (inactive)	> 100 µM (inactive)	> 100 µM (inactive)	> 100	> 100 µM (inactive)
CCOC(=O)/C=C(/C(=O)OCC)n1c(=O)c(C)cn(C2CC(N=[N+]=[N-])C(CO)O2)c1=O (stereo not drawn)	17.4 µM (inactive)	< 0.01 µM (active)	32.9 µM (inactive)	34 µM (inactive)	24.2 µM (inactive)			48.6 µM (inactive)	13.5 µM (inactive)	31.6 µM (inactive)	43 µM (inactive)	2.31 µM (inactive)	19.8 µM (inactive)	85.9 µM (inactive)	47.4 µM (inactive)	46.6 µM (inactive)	44.8 µM (inactive)	35.7 µM (inactive)	29.7	16.4 µM (inactive)
CC(C)C(NCc1c(O)ccc2c(-c3ccccc3)cc(=O)oc12)C(=O)O (stereo not drawn)	> 100 µM (inactive)	> 100 µM (inactive)	> 100 µM (inactive)	> 100 µM (inactive)	> 100 µM (inactive)	> 100 µM (inactive)	> 100 µM (inactive)		> 100 µM (inactive)	> 100 µM (inactive)	> 100 µM (inactive)	> 100 µM (inactive)	> 100 µM (inactive)	> 100 µM (inactive)	> 100 µM (inactive)	> 100 µM (inactive)	> 100 µM (inactive)	> 100 µM (inactive)	> 100	> 100 µM (inactive)
CCOC(=O)CCC(NC(=O)C(CCC(=O)OCC)NC(=O)C(Cc1ccc([N+](=O)[O-])cc1)NC(C)=O)C(=O)NNC(=O)OC(C)(C)C (stereo not drawn)	> 100 µM (inactive)	> 100 µM (inactive)	> 100 µM (inactive)	65.6 µM (inactive)	14 µM (inactive)	> 100 µM (inactive)		> 100 µM (inactive)	> 100 µM (inactive)		> 100 µM (inactive)	> 100 µM (inactive)	> 100 µM (inactive)	> 100 µM (inactive)	> 100 µM (inactive)	> 100 µM (inactive)		> 100 µM (inactive)	> 100	> 100 µM (inactive)
CC(=O)Nc1ccc(NCC(=O)Nn2cnc3ccc(S(=O)(=O)Nc4ccc(NC(C)=O)cc4)cc3c2=O)cc1	> 100 µM (inactive)	> 100 µM (inactive)	> 100 µM (inactive)	> 100 µM (inactive)			> 100 µM (inactive)	> 100 µM (inactive)	> 100 µM (inactive)	> 100 µM (inactive)	> 100 µM (inactive)	> 100 µM (inactive)	> 100 µM (inactive)	> 100 µM (inactive)	> 100 µM (inactive)	> 100 µM (inactive)	> 100 µM (inactive)	> 100 µM (inactive)	> 100	> 100 µM (inactive)
COC(=O)C(Cc1ccc(Oc2cc(CC(NC(=O)c3ccccc3)C(=O)OC)ccc2OC)cc1)NC(=O)c1ccccc1 (stereo not drawn)	3.03 µM (inactive)	0.948 µM (active)	6.82 µM (inactive)	22.9 µM (inactive)	14.7 µM (inactive)	18.2 µM (inactive)		26.7 µM (inactive)	22.7 µM (inactive)	54.8 µM (inactive)	14.2 µM (inactive)	3.82 µM (inactive)	16.6 µM (inactive)	17.9 µM (inactive)	22.8 µM (inactive)	9.59 µM (inactive)	19.7 µM (inactive)	26.6 µM (inactive)	28.7	13.5 µM (inactive)
